{"source": "patent US20230219913A1", "about": "“Sulfamoylamide Derivatives” (Hoffmann-La Roche Inc., priority 2020, published 2023)", "data": [{"target": "T1, human cGAS (residues 161-522) (Homo sapiens, UniProt Q8N884)", "T1 construct": "Recombinantly expressed purified human cGAS (residues 161-522) was used at 25 nM; made in house", "T1 sequence (Q8N884 161-522)": "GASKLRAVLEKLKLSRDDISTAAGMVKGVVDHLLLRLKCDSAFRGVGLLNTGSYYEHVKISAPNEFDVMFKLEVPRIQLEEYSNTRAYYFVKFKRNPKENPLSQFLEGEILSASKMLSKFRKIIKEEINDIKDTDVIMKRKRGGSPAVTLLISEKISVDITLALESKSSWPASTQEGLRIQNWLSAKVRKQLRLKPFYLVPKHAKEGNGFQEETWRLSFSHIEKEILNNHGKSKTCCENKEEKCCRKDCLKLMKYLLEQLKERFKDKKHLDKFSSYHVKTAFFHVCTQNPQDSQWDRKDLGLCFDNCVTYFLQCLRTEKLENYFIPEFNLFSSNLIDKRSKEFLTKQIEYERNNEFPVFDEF", "assay": "Malachite Green assay to measure cGAS activity (coupled enzymatic assay, phosphate detection)", "format": "biochemical", "conditions": "recombinant human cGAS 25 nM; 80 μM ATP, 80 μM GTP, 100 nM ISD; 4 hour at RT", "description": "Malachite Green Assay to Measure cGAS Activity\nCompounds were tested for cGAS inhibition in a coupled enzymatic assay based on Phosphate detection by Malachite Green. Final assay conditions were 20 mM TRIS pH 7.5 (Applichem), 5 mM MgCl2 (Sigma) and 0.01% BSA (Sigma) supplemented with 80 μM ATP (Sigma), 80 μM GTP (Sigma) and 100 nM Interferon Stimulating DNA (ISD) (Microsynth). Recombinantly expressed purified human cGAS (residues 161-522) was used at 25 nM.\nAll compounds were prepared as 10 mM stock solutions in DMSO and a 16 pt dilution series in DMSO with a dilution factor of 2.5 was prepared. 1 μL of DMSO dilution series was transferred to 32.3 μL reaction buffer, mixed by pipetting up/down, spun for 1 minute at 3000 rpm and was visually inspected for precipitation. 5 μL of 3-fold enzyme stock solution were transferred to an empty 384-well Black/Clear Flat Bottom Polystyrene NBS (Corning) rows 3-24. Rows 1-2 were filled with assay buffer. Plates were spun 10 seconds at 1000 rpm (164×g). 5 μL of compound intermediate dilution was added and mixed by pipetting up/down to rows 3-24. Rows 1-2 were filled with 3.1% DMSO assay buffer. Plates were spun 10 seconds at 1000 rpm (164×g). 5 μL 3-fold Nucleotide/DNA mix was added to all wells to start the reaction. Plates were spun 10 seconds at 1000 rpm (164×g) and incubated for 4 hour at room temperature (RT) in the dark. 5 μL 4 U/mL PPase (Sigma) were added to all wells. Plates spun 10 seconds at 1000 rpm (164×g). 10 μL BioMol green Solution (Enzo Life Sciences) was added to all wells. Plates spun 10 seconds at 1000 rpm (164×g) and incubated 30 minutes at RT in the dark. Absorbance data was collected 620 nm on an EnVision Multilable Reader (Perkin Elmer) and the following measurement settings were used: excitation filter photometric was 620 nm; excitation from the top; measurement height was 1 mm; number of flashes was 30; number of flashes integrated was 1.\nAll plates are checked for abnormalities and outliers in the Blank Control (no protein, row 1) and the Neutral Control (no compound, row 2) are excluded using the 3*SD rule. Data was normalized to 0 and 100% by Blank and Neutral Control and each curve was fitted and judged using the 4 parameter logistic equation to determine the IC50 for cGAS inhibition.\nTable 1 provides IC50 values (04) for cGAS inhibition obtained for particular examples of the present invention as measured by the above-described assay.", "units": {"IC50": "µM"}, "values": [{"smiles": "Cc1ccc(-c2ccc3c(c2)C(=O)NS(=O)(=O)N3)c(Cl)c1", "note": "[Example 1, 6-(2-Chloro-4-methylphenyl)-1H-benzo[c][1,2,6]thiadiazin-4(3H)-one 2,2-dioxide]", "IC50": 2.94}, {"smiles": "Cc1ccc(-c2ccc3c(c2)C(=O)NS(=O)(=O)N3CCN2CCOCC2)c(Cl)c1", "note": "[Example 2, 6-(2-Chloro-4-methylphenyl)-1-(2-morpholinoethyl)-1H-benzo[c][1,2,6]thiadiazin-4(3H)-one 2,2-dioxide]", "IC50": 9.6}, {"smiles": "Cc1ccc(-c2ccc3c(c2)C(=O)NS(=O)(=O)N3Cc2ccncc2)c(Cl)c1", "note": "[Example 3, 6-(2-Chloro-4-methylphenyl)-1-(pyridin-4-ylmethyl)-1H-benzo[c][1,2,6]thiadiazin-4(3H)-one 2,2-dioxide]", "IC50": 14.2}, {"smiles": "Cc1ccc(-c2ccc3c(c2)C(=O)NS(=O)(=O)N3CCc2ccccc2)c(Cl)c1", "note": "[Example 4, 6-(2-Chloro-4-methylphenyl)-1-phenethyl-1H-benzo[c][1,2,6]thiadiazin-4(3H)-one 2,2-dioxide]", "IC50": 17.2}, {"smiles": "Cc1ccc(-c2ccc3c(c2)C(=O)N(CCN2CCOCC2)S(=O)(=O)N3)c(Cl)c1", "note": "[Example 5, 6-(2-Chloro-4-methylphenyl)-3-(2-morpholinoethyl)-1H-benzo[c][1,2,6]thiadiazin-4(3H)-one 2,2-dioxide]", "IC50": 17.6}, {"smiles": "Cc1ccc(-c2ccc3c(c2)C(=O)NS(=O)(=O)N3Cc2ccccc2)c(Cl)c1", "note": "[Example 6, 1-Benzyl-6-(2-chloro-4-methylphenyl)-1H-benzo[c][1,2,6]thiadiazin-4(3H)-one 2,2-dioxide]", "IC50": 20.1}]}]}
